Experimental data as given in ChEMBL document CHEMBL1821592, “Dual effects of caffeoyl-amino acidyl-hydroxamic acid as an antioxidant and depigmenting agent” (Bioorg Med Chem Lett, 2011).
Active and inactive are the calls of the source. The calls are words filed in the database; no cut-off is given here.

How the values were obtained:
[1] = tested on: Radical scavenging activity; assay: Antioxidant activity assessed as DPPH free radical scavenging activity at 1.85 mM after 10 mins relative to control; format: functional
[2] = target: T1, Tyrosinase (Agaricus bisporus) (UniProt O42713); assay: Inhibition of mushroom tyrosinase using L-DOPA as substrate at 50 uM after 10 mins by UV absorbance method
T1 sequence (whole entry): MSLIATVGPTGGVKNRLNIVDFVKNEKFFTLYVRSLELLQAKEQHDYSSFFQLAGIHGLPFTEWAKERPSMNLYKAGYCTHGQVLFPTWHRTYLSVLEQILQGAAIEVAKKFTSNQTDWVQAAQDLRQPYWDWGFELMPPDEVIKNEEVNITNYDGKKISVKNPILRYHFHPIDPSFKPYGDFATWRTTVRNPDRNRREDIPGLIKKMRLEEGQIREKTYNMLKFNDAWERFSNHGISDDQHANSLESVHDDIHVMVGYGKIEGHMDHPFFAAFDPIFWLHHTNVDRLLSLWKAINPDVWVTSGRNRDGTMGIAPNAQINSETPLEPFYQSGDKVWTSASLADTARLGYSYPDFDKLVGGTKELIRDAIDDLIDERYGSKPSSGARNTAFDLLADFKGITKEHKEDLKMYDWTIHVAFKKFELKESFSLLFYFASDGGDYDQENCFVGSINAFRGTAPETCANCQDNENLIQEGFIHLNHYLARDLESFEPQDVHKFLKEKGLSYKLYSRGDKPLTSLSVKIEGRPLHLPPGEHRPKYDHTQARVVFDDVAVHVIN

[3] = Antioxidant activity against linoleic acid lipid peroxidation at 90 uM by ferric thiocyanate method; format: functional
[4] = Cytotoxicity against mouse Mel-Ab cells up to 200 uM after 24 hrs by crystal violet staining based ELISA; format: cell-based
Mel-Ab = assay: Inhibition of melanogenesis in mouse Mel-Ab cells assessed as reduction of melanin production at 100 uM after 4 days by ELISA reader; format: functional, cell-based
[5] = Antioxidant activity against linoleic acid lipid peroxidation at 90 uM after 48 hrs by ferric thiocyanate method; format: functional

Row | SMILES | inhibition [2] | Activity [1] [%] | other results
1 | O=C(/C=C/c1ccc(O)c(O)c1)N[C@H](Cc1ccccc1)C(=O)NO |  | 47.6 | 
2 | O=C(NO)[C@@H]1CCCN1C(=O)/C=C/c1ccc(O)c(O)c1 | Active | 77.2 | Activity [3]: Active; Activity [4]: Non-toxic; inhibition (Mel-Ab): Active; Activity [5]: Active
3 | CC(C)C[C@H](NC(=O)/C=C/c1ccc(O)c(O)c1)C(=O)NO | Active | 51.1 | 
4 | O=C(/C=C/c1ccc(O)c(O)c1)N[C@H](C(=O)NO)c1ccccc1 |  | 56.2 | 
5 | O=C(/C=C/c1ccc(O)c(O)c1)N[C@@H](Cc1ccccc1)C(=O)NO |  | 40.9 | 
6 | O=C(O)/C=C/c1ccc(O)c(O)c1 | inactive | 52.4 | 
7 | O=C(O)[C@@H]1CCCN1C(=O)/C=C/c1ccc(O)c(O)c1 |  | 20 | Activity [3]: Active; Activity [5]: Active

Continued, in another order:

Row | inhibition [2] | SMILES | Activity [1] [%] | other results
8 | Active | C[C@H](NC(=O)/C=C/c1ccc(O)c(O)c1)C(=O)NO | 40.7 | 
9 | Active | O=C(/C=C/c1ccc(O)c(O)c1)NCCC(=O)NO | 42.2 | 
10 | Active | O=C(/C=C/c1ccc(O)c(O)c1)NCC(=O)NO | 39.4 | 
11 | Active | O=C(/C=C/c1ccc(O)c(O)c1)NC(Cc1ccccc1)C(=O)NO (stereo not drawn) |  | 
